Results on two compounds are retold here after paper PMC12990037, “Discovery of Two Structurally Distinct Classes of Inhibitors Targeting the Nuclease MUS81 and Enhancing Efficacy of Chemotherapy in Cancer Cells” (Journal of Medicinal Chemistry, 2026).

The subject of one assay is MUS81. Set-up: method as in PMID 37352577. Conditions: FRET-based DNA cleavage assay; cited from earlier work.
A further assay concerns U2OS, HEK293, and CAL51. As to the kind of experiment: Cell proliferation assay (CyQUANT), combination with cisplatin. It counts as cell-based. Conditions: cisplatin alone, 5 days. The method, then:
7 MUS81 inhibitors synergize with cisplatin to reduce cancer cell viability. (A,B) U2OS cells were treated with DMSO, MU262, or MU876 at the indicated concentrations in combination with a range of cisplatin (0–5 μM) for 96–120 h. Cell viability was assessed by the Cy-Quant assay. The survival was normalized to the DMSO-treated control. Graphs were generated in Graphpad Prism using the nonlinear regression fitting model. n ≥ 3, error bars represent s.d. (C) CAL51 WT cells were treated with DMSO, MU262, or MU876 at the indicated concentrations at each passage over 2 weeks. Cisplatin (12 μM) was added for the last 24 h before harvest. DNA damage was assessed by quantifying γH2AX foci using fluorescence microscopy and CellProfiller software. Data were visualized plotted in R software. Red markers represent the median of γH2AX foci number per nucleus; blue markers represent the percentage of cells with ≥20 γH2AX foci per nucleus. n = 3, error bars represent s.d.; ****p <0.0001 (unpaired, two-tailed t-test). TEXT PRINTED IN THE PICTURE: (C) D: γH2AX foci: 2.4 (DMSO); γH2AX foci: 59.6 (Cisplatin) | (C) MU262: γH2AX foci: 2.3 (1 μM; DMSO); γH2AX foci: 3 (2 μM; DMSO); γH2AX foci: 55.4 (1 μM; Cisplatin); γH2AX foci: 43.2 (2 μM; Cisplatin) | (C) MU876: γH2AX foci: 2.8 (0.25 μM; DMSO); γH2AX foci: 0.9 (0.5 μM; DMSO); γH2AX foci: 48.2 (0.25 μM; Cisplatin); γH2AX foci: 42.6 (0.5 μM; Cisplatin) DOUBTS OF THE COPYIST ABOUT THIS PICTURE: Panel C: the numbers in the blue markers have no measure or unit of their own printed in the picture; the axis title 'γH2AX foci' is given as the measure, but the numbers may stand for another quantity. / Panel C: 'D' is a control column with no concentration; it may not count as a substance. / Panel C: small white print on blue markers; 59.6, 55.4, 48.2, 43.2, 42.6, 2.8 and 0.9 are best readings (3, 5, 6, 8 and 9 are hard to tell apart).
CAL51 WT, CAL51 MUS81^–/–, U2OS, and HEK293 cells were seeded in a 96-well plate and treated with the respective concentration of selected inhibitors. […]

Each structure is given as a SMILES string.

In general, IC50 refers to the concentration at which inhibition is half-maximal. On to `O=C(N/N=C/c1cc(O)c(O)cc1O)c1cc2ccccc2cc1O` [Dyngo-4a], for which the IC50 in the assay on MUS81 was 570 nM.

As to `N.N.[Cl][Pt][Cl]` [cisplatin, reference compound], in the assay on U2OS, HEK293, and CAL51, the cell viability entry is given as “dose-dependent decrease of viability”.
